Measurements as given in patent publication US11225482B2, “Dihydropyrrolopyrimidines for the treatment and prophylaxis of hepatitis B virus infection” (Hoffmann-La Roche Inc., priority 2017, dated 2022).

Tested on: HBsAg
Assay: HBsAg assay (CLIA) in HepG2.2.15 cells
Format: cell-based, HBV
Settings: Hepatitis B virus, HepG2.2.15, read-out: IC50 (HBsAg assay)
Description: HepG2.2.15 cells (Acs et al. Proc Natl Acad Sci USA, 84, (1987), 4641-4), a constitutively HBV-expressing cell line were cultured in DMEM+Glutamax-I medium (Invitrogen, Carlsbad, Calif., USA), supplemented with 10% fetal bovine serum (Invitrogen) and G418 (Invitrogen) at a final concentration of 200 mg/L and maintained in 5% CO2 at 37° C.
HepG2.2.15 cells were seeded in duplicate into white, 96-well plates at 1.5×10^4 cells/well. The cells were treated with a three-fold serial dilution series of the compounds in DMSO. The final DMSO concentration in all wells was 1% and DMSO was used as no drug control.
The HBsAg chemiluminescence immunoassay (CLIA) kit (Autobio Diagnostics Co., Zhengzhou, China, Catalog number: CL0310-2) was used to measure the levels of secreted HBV antigens semi-quantitatively. For the detection 50 μL/well culture supernatant was used and HBsAg was quantified using HBsAg chemiluminescence immunoassay (CLIA) kit (Autobio Diagnostics Co., Zhengzhou, China, Catalog number: CL0310-2), 50 μL of the supernatant was transferred to the CLIA assay plate and 50 μL of enzyme conjugate reagent was added into each well. The plates were sealed and gently agitated for 1 hour at room temperature. The supernatant-enzyme-mixture was discarded and wells were washed 6 times with 300 μL of PBS. The residual liquid was removed by plating the CLIA plate […] on absorbent tissue paper. 25 μL of substrates A and B were added to each well. Luminance was measured using a luminometer (Mithras LB 940 Multimode Microplate Reader) after 10 minutes incubation. Dose-response curves were generated and the IC50 value was extrapolated by using the E-WorkBook Suite (ID Business Solutions Ltd., Guildford, UK). The IC50 was defined as the compound concentration (or conditioned media log dilution) at which HBsAg secretion was reduced by 50% compared to the no drug control.

Point of comparison: CC1c2cnc(-c3ncccn3)nc2CN1c1cc(N2CCNCC2)cc(F)n1 (stereo not drawn) [Example 43, 6-(6-Fluoro-4-piperazin-1-yl-2-pyridyl)-5-methyl-2-pyrimidin-2-yl-5,7-dihydropyrrolo[3,4-d]pyrimidine], IC50 4270 nM. Against it:
- CC1c2cnc(-c3ncccn3)nc2CN1c1cc(N2CCCC2)cc(F)n1 (stereo not drawn) [Example 40, 6-(6-Fluoro-4-pyrrolidin-1-yl-2-pyridyl)-5-methyl-2-pyrimidin-2-yl-5,7-dihydropyrrolo[3,4-d]pyrimidine] — 270-fold lower, 16 nM
- CC1c2cnc(-c3ncccn3)nc2CN1C(=O)c1noc2ccccc12 (stereo not drawn) [Example 27, 1,2-Benzoxazol-3-yl-(5-methyl-2-pyrimidin-2-yl-5,7-dihydropyrrolo[3,4-d]pyrimidin-6-yl)methanone] — 6.9-fold lower, 620 nM
- CC1c2cnc(-c3ncccn3)nc2CN1c1cc(F)cc(N2CC3(COC3)C2)n1 (stereo not drawn) [Example 36, 6-[4-Fluoro-6-(5-Methyl-2-Pyrimidin-2-Yl-5,7-Dihydropyrrolo[3,4-d]Pyrimidin-6-Yl)-2-Pyridyl]-2-Oxa-6-Azaspiro[3.3]Heptane] — 4.9-fold lower, 865 nM
- CC1c2cnc(-c3ncccn3)nc2CN1C(=O)c1ccc(Br)s1 (stereo not drawn) [Example 17, (5-Bromo-2-thienyl)-(5-methyl-2-pyrimidin-2-yl-5,7-dihydropyrrolo[3,4-d]pyrimidin-6-yl)methanone] — 5.6-fold lower, 761 nM
- CC1c2cnc(-c3ncccn3)nc2CN1C(=O)c1ccn(C)n1 (stereo not drawn) [Example 13, (1-Methylpyrazol-3-yl)-(5-methyl-2-pyrimidin-2-yl-5,7-dihydropyrrolo[3,4-d]pyrimidin-6-yl)methanone] — within 1.5-fold, 3540 nM
- CC1c2cnc(-c3ncccn3)nc2CN1C(=O)c1nc2ccccc2[nH]1 (stereo not drawn) [Example 14, 1H-Benzimidazol-2-yl-(5-methyl-2-pyrimidin-2-yl-5,7-dihydropyrrolo[3,4-d]pyrimidin-6-yl)methanone] — 10-fold lower, 422 nM
- CNc1cc(F)nc(N2Cc3nc(-c4ncccn4)ncc3C2C)c1 (stereo not drawn) [Example 37, 2-Fluoro-N-methyl-6-(5-methyl-2-pyrimidin-2-yl-5,7-dihydropyrrolo[3,4-d]pyrimidin-6-yl)pyridin-4-amine] — 78-fold lower, 55 nM
- COc1cc(F)cc(C(=O)N2Cc3nc(-c4ncccn4)ncc3C2C)c1 (stereo not drawn) [Example 4, (3-Fluoro-5-methoxy-phenyl)-(5-methyl-2-pyrimidin-2-yl-5,7-dihydropyrrolo[3,4-d]pyrimidin-6-yl)methanone] — 3.3-fold higher, 14100 nM
- CC1c2cnc(-c3ncccn3)nc2CN1C(=O)c1ccc(Cl)s1 (stereo not drawn) [Example 9, (5-Chloro-2-thienyl)-(5-methyl-2-pyrimidin-2-yl-5,7-dihydropyrrolo[3,4-d]pyrimidin-6-yl)methanone] — 11-fold lower, 380 nM
- CC1c2cnc(-c3ncccn3)nc2CN1c1cc(N2CCNC(=O)C2)cc(F)n1 (stereo not drawn) [Example 45, 4-[2-Fluoro-6-(5-methyl-2-pyrimidin-2-yl-5,7-dihydropyrrolo[3,4-d]pyrimidin-6-yl)-4-pyridyl]piperazin-2-one] — 27-fold lower, 160 nM
- CC1c2cnc(-c3ncccn3)nc2CN1c1cc(N(C)C)cc(F)n1 (stereo not drawn) [Example 38, 2-Fluoro-N,N-dimethyl-6-(5-methyl-2-pyrimidin-2-yl-5,7-dihydropyrrolo[3,4-d]pyrimidin-6-yl)pyridin-4-amine] — 280-fold lower, 15 nM
- CC(=O)N1CCN(c2cc(F)cc(N3Cc4nc(-c5ncccn5)ncc4C3C)n2)CC1 (stereo not drawn) [Example 34, 1-[4-[4-Fluoro-6-(5-Methyl-2-Pyrimidin-2-Yl-5,7-Dihydropyrrolo[3,4-d]Pyrimidin-6-Yl)-2-Pyridyl]Piperazin-1-Yl]Ethanone] — 12-fold lower, 361 nM
- COc1cncc(C(=O)N2Cc3nc(-c4ncccn4)ncc3C2C)n1 (stereo not drawn) [Example 22, (6-Methoxypyrazin-2-yl)-(5-methyl-2-pyrimidin-2-yl-5,7-dihydropyrrolo[3,4-d]pyrimidin-6-yl)methanone] — within 1.5-fold, 4730 nM
- COc1cc(F)nc(N2Cc3nc(-c4ccccn4)ncc3C2C)c1 (stereo not drawn) [Example 33, 6-(6-Fluoro-4-methoxy-2-pyridyl)-5-methyl-2-(2-pyridyl)-5,7-dihydropyrrolo[3,4-d]pyrimidine] — 34-fold lower, 127 nM
- CC1c2cnc(-c3ncccn3)nc2CN1C(=O)c1cc(Br)cs1 (stereo not drawn) [Example 7, (4-Bromo-2-thienyl)-(5-methyl-2-pyrimidin-2-yl-5,7-dihydropyrrolo[3,4-d]pyrimidin-6-yl)methanone] — 4.6-fold lower, 920 nM
- CC1c2cnc(-c3ncccn3)nc2CN1C(=O)c1ccc2ncsc2c1 (stereo not drawn) [Example 25, 1,3-Benzothiazol-6-yl-(5-methyl-2-pyrimidin-2-yl-5,7-dihydropyrrolo[3,4-d]pyrimidin-6-yl)methanone] — 6.8-fold higher, 29000 nM
- CC1c2cnc(-c3ncccn3)nc2CN1c1cc(N2CCN(S(C)(=O)=O)CC2)cc(F)n1 (stereo not drawn) [Example 44, 6-[6-Fluoro-4-(4-methylsulfonylpiperazin-1-yl)-2-pyridyl]-5-methyl-2-pyrimidin-2-yl-5,7-dihydropyrrolo[3,4-d]pyrimidine] — 30-fold lower, 140 nM
- Cc1cnc(C(=O)N2Cc3nc(-c4ncccn4)ncc3C2C)s1 (stereo not drawn) [Example 1, (5-Methyl-2-pyrimidin-2-yl-5,7-dihydropyrrolo[3,4-d]pyrimidin-6-yl)-(5-methylthiazol-2-yl)methanone] — 6.1-fold lower, 700 nM
- CC1c2cnc(-c3ncccn3)nc2CN1C(=O)c1n[nH]c2ccccc12 (stereo not drawn) [Example 23, 1H-indazol-3-yl-(5-methyl-2-pyrimidin-2-yl-5,7-dihydropyrrolo[3,4-d]pyrimidin-6-yl)methanone] — 18-fold lower, 232 nM
- COc1ccc(C(=O)N2Cc3nc(-c4ncccn4)ncc3C2C)s1 (stereo not drawn) [Example 2, (5-Methoxy-2-thienyl)-(5-methyl-2-pyrimidin-2-yl-5,7-dihydropyrrolo[3,4-d]pyrimidin-6-yl)methanone] — 13-fold lower, 330 nM
- CC1c2cnc(-c3ncccn3)nc2CN1c1cc(N2CCOCC2)cc(F)n1 (stereo not drawn) [Example 42, 4-[2-Fluoro-6-(5-methyl-2-pyrimidin-2-yl-5,7-dihydropyrrolo[3,4-d]pyrimidin-6-yl)-4-pyridyl]morpholine] — 110-fold lower, 40 nM
- CC1c2cnc(-c3ncccn3)nc2CN1C(=O)c1ccc([N+](=O)[O-])s1 (stereo not drawn) [Example 18, (5-Methyl-2-pyrimidin-2-yl-5,7-dihydropyrrolo[3,4-d]pyrimidin-6-yl)-(5-nitro-2-thienyl)methanone] — 5.9-fold lower, 724 nM
- CC1c2cnc(-c3ncccn3)nc2CN1c1cc(F)nc(F)c1 (stereo not drawn) [Example 32, 6-(2,6-difluoro-4-pyridyl)-5-methyl-2-pyrimidin-2-yl-5,7-dihydropyrrolo[3,4-d]pyrimidine] — 2.1-fold lower, 2000 nM
- CC1c2cnc(-c3ncccn3)nc2CN1c1cc(F)nc(N2CC3(COC3)C2)c1 (stereo not drawn) [Example 35, 6-[6-Fluoro-4-(5-Methyl-2-Pyrimidin-2-Yl-5,7-Dihydropyrrolo[3,4-d]Pyrimidin-6-Yl)-2-Pyridyl]-2-Oxa-6-Azaspiro[3.3]Heptane] — 7.3-fold lower, 588 nM
- COc1ccc(C(=O)N2Cc3nc(-c4ncccn4)ncc3C2C)cc1 (stereo not drawn) [Example 15, (4-Methoxyphenyl)-(5-methyl-2-pyrimidin-2-yl-5,7-dihydropyrrolo[3,4-d]pyrimidin-6-yl)methanone] — 6.1-fold higher, 26100 nM
- CC1c2cnc(-c3ncccn3)nc2CN1C(=O)c1cnn(C)c1 (stereo not drawn) [Example 11, (1-Methylpyrazol-4-yl)-(5-methyl-2-pyrimidin-2-yl-5,7-dihydropyrrolo[3,4-d]pyrimidin-6-yl)methanone] — within 1.5-fold, 6170 nM
